Columns and labels:
[1] = target: T1, Glycogen synthase kinase-3 beta (Mus musculus, UniProt Q9WV60); assay: Inhibition of GSK-3 beta in mouse D3 cells assessed as induction of neuron specific marker beta3-tubulin by immunofluorescence method; assay type: cell-based
[2] = target: T1, Glycogen synthase kinase-3 beta; assay: Inhibition of GSK-3 beta in mouse D3 cells; assay type: cell-based
[3] = target: Myc proto-oncogene protein/Transcription factor AP-1 (Gallus gallus, UniProt P01109+P18870); assay: Inhibition of Myc-Jun protein - protein interaction in chicken embryo fibroblasts assessed as inhibition of cell focus formation11
Chain of Myc proto-oncogene protein/Transcription factor AP-1 (P18870 whole entry): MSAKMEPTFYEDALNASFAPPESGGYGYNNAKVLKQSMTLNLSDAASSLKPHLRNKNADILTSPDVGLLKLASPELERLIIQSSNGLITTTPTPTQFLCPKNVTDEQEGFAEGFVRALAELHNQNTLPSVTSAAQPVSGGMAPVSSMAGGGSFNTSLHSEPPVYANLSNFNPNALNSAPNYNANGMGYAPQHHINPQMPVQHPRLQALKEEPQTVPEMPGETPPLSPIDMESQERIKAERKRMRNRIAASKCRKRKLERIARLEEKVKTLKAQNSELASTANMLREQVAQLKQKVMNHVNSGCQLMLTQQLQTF
Chain of Myc proto-oncogene protein/Transcription factor AP-1 (P01109 whole entry): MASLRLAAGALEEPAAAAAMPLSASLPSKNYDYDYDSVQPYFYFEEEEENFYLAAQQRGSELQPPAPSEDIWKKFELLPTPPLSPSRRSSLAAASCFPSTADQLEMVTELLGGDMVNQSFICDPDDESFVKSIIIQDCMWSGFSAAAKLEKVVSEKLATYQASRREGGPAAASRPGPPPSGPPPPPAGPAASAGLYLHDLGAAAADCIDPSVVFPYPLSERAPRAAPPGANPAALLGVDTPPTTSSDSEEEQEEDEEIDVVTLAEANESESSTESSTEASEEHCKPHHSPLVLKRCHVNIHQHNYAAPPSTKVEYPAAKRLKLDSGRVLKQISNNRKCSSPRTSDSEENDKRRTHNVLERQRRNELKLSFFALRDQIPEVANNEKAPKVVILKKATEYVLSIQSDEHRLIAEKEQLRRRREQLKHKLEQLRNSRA

[4] = target: T1, Glycogen synthase kinase-3 beta; assay: Inhibition of GSK-3 beta in mouse D3 cells assessed as induction of neuron specific marker microtubule-associated protein 2 by immunofluorescence method; assay type: cell-based
[5] = target: T1, Glycogen synthase kinase-3 beta; assay: Binding affinity to GSK-3 beta in mouse D3 cells; assay type: cell-based
[6] = target: T1, Glycogen synthase kinase-3 beta; assay: Inhibition of GSK-3 beta in mouse D3 cells assessed as induction of neuron specific marker neurofilament-M by immunofluorescence method; assay type: cell-based
[7] = Induction of cardiomyogenesis in mouse D3 cells assessed as induction of cadiomyocyte specific marker myosin heavy chain by immunofluorescence method; assay type: functional, cell-based
[8] = Induction of cardiomyogenesis in mouse D3 cells assessed as induction of cadiomyocyte specific marker MEF2 by immunofluorescence method; assay type: functional, cell-based
Histone deacetylase = assay: Inhibition of HDAC in human A549 cells assessed as induction of histone acetylation by fluorescence microscopy; assay type: cell-based
C3H 10T1/2 = assay: Induction of osteogenesis in mouse C3H10T1/2 cells assessed as induction of osteoblast specific marker alkaline phosphatase by immunofluorescence method; assay type: functional, cell-based
[9] = Binding affinity to yeast Ure2p; design: species or system Saccharomyces cerevisiae

T1 sequence (Q9WV60 whole entry): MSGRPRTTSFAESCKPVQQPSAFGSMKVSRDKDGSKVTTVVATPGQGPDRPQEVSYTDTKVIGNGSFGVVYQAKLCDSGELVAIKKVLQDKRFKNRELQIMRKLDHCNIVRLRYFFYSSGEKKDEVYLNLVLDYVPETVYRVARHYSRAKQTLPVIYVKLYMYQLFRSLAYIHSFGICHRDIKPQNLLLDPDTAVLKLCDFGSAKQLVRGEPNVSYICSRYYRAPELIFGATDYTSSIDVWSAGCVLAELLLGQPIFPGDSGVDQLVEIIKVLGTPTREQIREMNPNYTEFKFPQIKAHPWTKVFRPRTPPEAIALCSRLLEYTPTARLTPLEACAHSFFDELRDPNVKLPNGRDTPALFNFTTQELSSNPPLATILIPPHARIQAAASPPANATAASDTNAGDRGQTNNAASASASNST

Nc1cccc(-c2cc3c(Oc4cccc(O)c4)ncnc3[nH]2)c1 showed an EC50 [1] of 1 µM, a Kd [2] of 0.126 µM and an IC50 [3] of 15 µM. For the same compound, the EC50 [4] was 1 µM, the IC50 [5] was 0.03 µM and the EC50 [6] was 1 µM.
In the case of COc1ccc(Nc2nccc(NCCO)n2)cc1 [CARDIOGENOL C], the EC50 [7] is reported as 0.1 µM and the EC50 [8] is reported as 0.1 µM.
In the case of Nc1ccccc1NC(=O)CCCCCC(=O)Nc1cccc([C@@H]2O[C@H](CN3CCN(Cc4ccccc4)CC3)C[C@H](c3ccc(CO)cc3)O2)c1 [HISTACIN], the EC50 (Histone deacetylase) is reported as 34 µM.
c1ccc2c(Oc3nc(Nc4ccc(N5CCOCC5)cc4)c4ncn(C5CCCCC5)c4n3)cccc2c1 [PURMORPHAMINE] gave an EC50 (C3H 10T1/2) of 1 µM.
NCc1ccc([C@H]2O[C@@H](CSc3nc(-c4ccccc4)c(-c4ccccc4)o3)[C@H](c3ccccc3)[C@@H](c3ccc(CO)cc3)O2)cc1 [URETUPAMINE A] gave a Kd [9] of 18.1 µM.
NCc1ccc([C@H]2O[C@@H](CSc3nc(-c4ccccc4)c(-c4ccccc4)o3)C[C@@H](c3ccc(CO)cc3)O2)cc1 [URETUPAMINE B] showed a Kd [9] of 7.5 µM.
